The test concerns 422866-222-R5-J1-PDC complex spheroid viability. The test is described as follows: Anticancer human tumor 422866-222-R5-J1-PDC patient-derived pancreatic adenocarcinoma cell line growth inhibition [POLQ]. The conditions noted are these: for viability, T/C: stronger effect = lower value. The protocol: Multicellular complex tumor spheroid response to Polymerase (POL) inhibitors (novobiocin, ART-558, RP6685) in combination with a variety of drugs and investigational agents in selected tumor cell lines
The POL inhibitors (novobiocin, ART-558, and RP6685) were evaluated both individually and in combination with standard of care and investigational anticancer small molecules within a complex spheroid model of solid tumors. . Complex spheroids include a stromal component modeled by human endothelial cells (HUVEC) and fibroblasts modeled by human mesenchymal stem cells (MSCs). The concentration ranges selected for each drug and investigational agent were based upon clinically achievable concentrations if the clinical Cmax of the agent was known.
Compounds. The drugs and investigational agents: novobiocin (NSC847541), ART-558 (NSC835418), RP-6685 (NSC848927), peposertib (NSC802822), ceralasertib (NSC780249), elimusertib (NSC800525), camonsertib (NSC841442), AZD-1390 (NSC803789), olaparib (NSC753686), talazoparib (NSC767125), rucaparib (NSC756644), sotorasib (NSC818433), MRTX-1133 (NSC836407), SN-38 (NSC673596), topotecan (NSC609699), epotoside (NSC141540), doxorubicin (NSC123127), gemcitabine (NSC613327), 5-fluorouracil (NSC19893), paclitaxel (NSC125973), vemurafenib (NSC761431), MSA-2 (NSC828583), SN-011 (NSC837082), adavosertib (NSC754352), prexasertib (NSC758257), carboplatin (NSC241240) and oxaliplatin (NSC266046), were obtained from the National Cancer Institute (NCI) Developmental Therapeutics Program Chemical Repository (21). The FDA-approved anticancer drug set is available from the Developmental Therapeutics Program at https://dtp.cancer.gov/organization/dscb/obtaining/. […] The stock solutions were prepared in dimethyl sulfoxide (DMSO, Sigma-Aldrich, St. Louis, MO, cat. D2650), except for the platinum compounds which were prepared in saline (Quality Biological, Gaithersburg, MD, cat. 114-055-101), at 800-fold the tested concentration and stored at -70 degrees C prior to their use. All drugs and investigational agents were tested over a range starting from a high concentration at or near the clinical Cmax and decreasing in half-log increments. If the clinical Cmax for an agent had not been determined, the highest concentration tested was 10 microM, except for SN-38, which was tested at a high concentration of 1 microM.
Cell Culture. All cells were maintained in an incubator at 37 degrees C and 5% CO2 with 95% humidity. The PDC lines were cultured according to standard operating procedures established by the NCI PDMR (https://pdmr.cancer.gov). Table 3 of the manuscript, lists the cell lines along with the number of the three cell types plated to form the mct-spheroids and media for tumor cell growth. After thawing, all PDC lines, except 997537-175-T-J1-PDC and 415267-285-R-J2-PDC, were cultured in Matrigel-coated flasks prepared with a working solution of 1X Ham's F-12 nutrient mix, without supplementation (Thermo Fisher Scientific, cat. 11765054), 100 U/mL penicillin-streptomycin (Thermo Fisher Scientific, cat. 15140122), and 2.5% Matrigel (Corning Inc., Corning, NY, cat. 354248) for the first three passages. The two PDC lines 997537-175-T-J1-PDC and 415267-285-R-J2-PDC were cultured on uncoated flasks. The 857933-349-R-J2-PDC line was cultured in 6C/Colon 1B media containing advanced DMEM/F-12 (Thermo Fisher Scientific, cat. 12634028), 10 mM HEPES (Thermo Fisher Scientific, cat. 15630080), 1X GlutaMAX supplement (Thermo Fisher Scientific, cat. 35050061), 0.1 mg/mL primocin (InvivoGen, San Diego, CA, cat. ant-pm-2), 10% defined fetal bovine serum, heat inactivated (HyClone Laboratories Inc., Logan, UT, cat. SH30070.03HI), 50% L-WRN conditioned media (ATCC, cat. CRL-3276), 1.25 mM N-Acetyl-L-cysteine (Sigma-Aldrich, cat. A9165), 10 mM nicotinamide (Sigma-Aldrich, cat. N0636), 1X B-27 supplement (Thermo Fisher Scientific, cat. 17504044), 1X N-2 supplement (Thermo Fisher Scientific, cat. […]

“And” between values parts separate entries of the source, which are not always exact repeats. Identical values can stand only once. Some results are limits rather than exact numbers.
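Note: spheroids exposed to compounds for one week before readout.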
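Throughout, for viability, T/C: percent of DMSO vehicle wells luminescence so 100% = untreated viability.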

Turning to `CCc1c2c(nc3ccc(O)cc13)-c1cc3c(c(=O)n1C2)COC(=O)[C@]3(O)CC` + COC1C(OC(N)=O)C(O)C(Oc2ccc3c(O)c(NC(=O)c4ccc(O)c(CC=C(C)C)c4)c(=O)oc3c2C)OC1(C)C, the IC50 – broadly, the point on the concentration scale where inhibition reaches its midpoint – was < 3.16 nM (curve of first compound, second compound 0.0316 µM); < 3.16 nM (curve of first compound, second compound 0.1 µM); < 3.16 nM (curve of first compound, second compound 0.316 µM); < 3.16 nM (curve of first compound, second compound 1 µM); < 3.16 nM (curve of first compound, second compound 3.16 µM); < 3.16 nM (curve of first compound, second compound 10 µM). In addition, the viability, T/C (as a rule, the result in the treated group divided by that in the control group, in per cent) reads like this: (second compound 0.0316 µM, first compound 0.00316 µM) 44.1%; (second compound 0.0316 µM, first compound 0.01 µM) 34.4%; (second compound 0.0316 µM, first compound 0.0316 µM) 33.4%; (second compound 0.0316 µM, first compound 0.1 µM) 30.8%; (second compound 0.0316 µM, first compound 0.316 µM) 28.7%; (second compound 0.0316 µM, first compound 1 µM) 19.7%. Moreover, the viability, T/C reads like this: (second compound 0.1 µM, first compound 0.00316 µM) 41.3%; (second compound 0.1 µM, first compound 0.01 µM) 34.8%; (second compound 0.1 µM, first compound 0.0316 µM) 32%; (second compound 0.1 µM, first compound 0.1 µM) 30.6%; (second compound 0.1 µM, first compound 0.316 µM) 34.6%; (second compound 0.1 µM, first compound 1 µM) 18.6%. In addition, the viability, T/C by setting is: (second compound 0.316 µM, first compound 0.00316 µM) 41.1%; (second compound 0.316 µM, first compound 0.01 µM) 35.9%; (second compound 0.316 µM, first compound 0.0316 µM) 30.9%; (second compound 0.316 µM, first compound 0.1 µM) 29.6%; (second compound 0.316 µM, first compound 0.316 µM) 32.9%; (second compound 0.316 µM, first compound 1 µM) 16.7%. The viability, T/C (second compound 1 µM, first compound 0.00316 µM) is 41.8%; the viability, T/C (second compound 1 µM, first compound 0.01 µM) turned out to be 30.9%; the viability, T/C (second compound 1 µM, first compound 0.0316 µM) stood at 30.5%; the viability, T/C (second compound 1 µM, first compound 0.1 µM) came out at 33.8%; the viability, T/C (second compound 1 µM, first compound 0.316 µM) was 32.6%; the viability, T/C (second compound 1 µM, first compound 1 µM) came to 19%. For the same molecule, the viability, T/C reads like this: (second compound 3.16 µM, first compound 0.00316 µM) 41%; (second compound 3.16 µM, first compound 0.01 µM) 34.8%; (second compound 3.16 µM, first compound 0.0316 µM) 36%; (second compound 3.16 µM, first compound 0.1 µM) 32.7%; (second compound 3.16 µM, first compound 0.316 µM) 34.3%; (second compound 3.16 µM, first compound 1 µM) 22.5%. For the same molecule, the viability, T/C by setting is: (second compound 10 µM, first compound 0.00316 µM) 39.4%; (second compound 10 µM, first compound 0.01 µM) 34.2%; (second compound 10 µM, first compound 0.0316 µM) 31.6%; (second compound 10 µM, first compound 0.1 µM) 32.1%; (second compound 10 µM, first compound 0.316 µM) 31.1%; (second compound 10 µM, first compound 1 µM) 19.9%.
In the case of `CC(=O)O[C@H]1C(=O)[C@@]2(C)[C@H]([C@H](OC(=O)c3ccccc3)[C@]3(O)C[C@H](OC(=O)[C@H](O)[C@@H](NC(=O)c4ccccc4)c4ccccc4)C(C)=C1C3(C)C)[C@]1(OC(C)=O)CO[C@@H]1C[C@@H]2O`, the viability, T/C is, setting by setting: (compound 0.00949 µM) 50.9% and 53.8% and 66.3%; (compound 0.03 µM) 50.2% and 51.8% and 56.2%; (compound 0.0949 µM) 54.2% and 52.1% and 68.6%; (compound 0.3 µM) 64.3% and 52.8% and 60.4%; (compound 0.949 µM) 53.7% and 57.4% and 68.9%; (compound 3 µM) 61.5% and 58.4% and 69.8%. Moreover, under “curve of compound”, the IC50 is > 3000 nM.
With `Cn1ncnc1[C@H]1c2n[nH]c(=O)c3cc(F)cc(c23)N[C@@H]1c1ccc(F)cc1`, the viability, T/C reads like this: (compound 0.000316 µM) 105% and 98.6% and 90.6%; (compound 0.001 µM) 94.4% and 84.4% and 82.5%; (compound 0.00316 µM) 95.8% and 100% and 84.7%; (compound 0.01 µM) 102% and 89.2% and 106%; (compound 0.0316 µM) 96.2% and 89.7% and 91.1%; (compound 0.1 µM) 82.2% and 98.5% and 82.5%. Moreover, the IC50 (curve of compound) is > 100 nM.
Take `CCc1cc2c(N3CCc4c(cc(Cn5ccnc5)cc4-c4cn(C)nc4C(F)(F)F)C3=O)ccnc2c(OC)n1`: the viability, T/C was 93.7% and 75.7% and 82.9% (compound 0.0316 µM); 81% and 78.8% and 84.5% (compound 0.1 µM); 89.8% and 81.5% and 92.5% (compound 0.316 µM); 117% and 113% and 99.8% (compound 1 µM); 129% and 108% and 106% (compound 3.16 µM); 108% and 87.1% and 92.4% (compound 10 µM). Moreover, the IC50 (curve of compound) is > 10000 nM.
On to `COc1cc2cc(C(=O)CCC(=O)O)sc2cc1OC`, for which the viability, T/C (compound 0.0316 µM) is 106% and 85.3% and 94.7%; the viability, T/C (compound 0.1 µM) was 99.5% and 89.1% and 83%; the viability, T/C (compound 0.316 µM) was 107% and 91% and 88%; the viability, T/C (compound 3.16 µM) is 98.6% and 97.3% and 98%. Besides, the IC50 (curve of compound) is > 10000 nM.
Regarding `Cc1cccc(N(C)C(=O)C2C(O)CCN2c2nc(C)cc(C(F)(F)F)c2C#N)c1` (stereo not given), the viability, T/C runs as follows: (compound 0.1 µM) 93.7% [middle of 13 runs]; (compound 0.316 µM) 94.8% [middle of 13 runs]; (compound 10 µM) 99.8% [middle of 13 runs]. For the same molecule, the IC50 runs as follows: (compound alone, run of 11/27/2023) > 10000 nM; (compound alone, run of 12/05/2023) > 10000 nM.
Take `O=c1[nH]cc(F)c(=O)[nH]1`: the viability, T/C reads like this: (compound 0.0316 µM) 95.8% and 101% and 92%; (compound 0.1 µM) 103% and 93.5% and 99.9%; (compound 0.316 µM) 107% and 97.4% and 98.9%; (compound 1 µM) 85% and 101% and 80.7%; (compound 3.16 µM) 73.7% and 83.7% and 89.8%; (compound 10 µM) 74.5% and 73.4% and 72.8%. For the same molecule, the IC50 (curve of compound) was > 10000 nM.

(Values after PubChem BioAssay AID1963844 (Molecular Pharmacology Branch, DTP, NCI, 2024).)
